Converted amounts (≈) assume the structure as drawn. Where a SMILES comes first, the peptide text is derived from it. Bridges are numbered along the chain shown (N, C = ends). [ ]: non-standard residue; d: D form. The star is where a group is joined. X14 = O=C(c1ccc(C(F)(F)F)cn1)*; X51 = O=C(c1cc(Cl)nc(Cl)c1)*; X52 = O=C(c1nc2ccccc2s1)*; X48 = O=C(c1ccc(Cl)nc1)*; Dab = NCC[C@H](N)C(=O)O; Abu = CC[C@H](N)C(=O)O; Dap = NC[C@H](N)C(=O)O
Key:
[1] = test system: mouse kidney; experiment: Nephrotoxicity in a mouse model (kidney histology); format: in vivo; conditions: for Max Overall Kidney Histological Score / Max Kidney Histological Score: mice (n=3), subcutaneous 12 mg/kg free base every 2 h, 6 doses in one day; for Max Overall Kidney Histological Score: kidney ~20 h after last dose; for Max Kidney Histological Score: semiquantitative score 0 to +5
Procedure: Polymyxin B sulphate and colistin sulphate were supplied by Betapharma (Shanghai Co., Ltd, China). Stock solutions of compounds in saline (5 mg base/mL) were stored at 4° C. before use. Mice (n=3) were subcutaneously administered with the compound at 12 mg/kg of the free base form every 2 h, 6 doses in one day. At approximately 20 h after the last dose, mice were euthanised by inhalation of an overdose of isoflurane. Immediately after blood sampling, the right kidney from each mouse was collected immediately and placed in 10% formalin in 5 mL plastic tubes and the left kidney placed in a pre-weighed 14 mL plastic tubes, weighed again and stored at −20° C. pending homogenization and analysis of polymyxin B and colistin. The frozen kidney samples were thawed, homogenized in 2 mL of Milli-Q water and stored in a −20° C. freezer. The formalin-fixed kidneys were then sent to the Australian Phenomics Network-Histopathology and Organ Pathology (The University of Melbourne, Parkville, Australia) for histological examination. Samples were examined by a pathologist who was blind to the treatment groups.
Lesions were rated as follows: mild acute tubular damage with tubular dilation, prominent nuclei and a few pale tubular casts (Grade 1); severe acute tubular damage with necrosis of tubular epithelial cells and numerous tubular casts (Grade 2); acute cortical necrosis/infarction of tubules and glomeruli with or without papillary necrosis (Grade 3). The grades were given the following scores: grade 1=1, grade 2=4, and grade 3=10. The percentage of area of the kidney slice showing histological damage was scored as follows: <1%=0, 1 to <5%=1, 5 to <10%=2, 10 to <20%=3, 20 to <30%=4, 30 to <40%=5, and >40%=6. The overall kidney histological score was calculated as the product of the percentage score and grade score. These scores were then expressed as a semiquantitative score (Kidney Histological Score) on a scale of 0 to +5 for renal histological changes. These scores were assigned as follows: SQS 0=no significant change (overall score, <1); SQS +1=mild damage (overall score, 1 to <15); SQS +2=mild to moderate damage (overall score, 15 to <30); SQS +3=moderate damage (overall score, 30 to <45); SQS +4=moderate to severe damage (overall score, 45 to <60); and SQS +5=severe damage (overall score, ≥60) (Yousef, J., et al., (2011) Antimicrob. Agents and Chemother. 55 (9), 4044-4049).
Any compound with a kidney histological score of ≤+1.0 is considered to have a low nephrotoxicity in this model.

[2] = test system: Pseudomonas aeruginosa FADDI-PA01; format: cell-based; conditions: P. aeruginosa FADDI-PA01; CAMHB broth microdilution
Procedure, shortened: (§1)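 Lipopeptides (TFA salts) tested against Gram-negative strains by CLSI broth microdilution using cation-adjusted Mueller-Hinton broth; MIC recorded, polymyxin B sulphate as control.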

[3] = test system: Pseudomonas aeruginosa ATCC 27853; format: cell-based; conditions: P. aeruginosa ATCC 27853; CAMHB broth microdilution
Procedure, shortened: as §1

[4] = test system: Pseudomonas aeruginosa FADDI-PA022; format: cell-based; conditions: P. aeruginosa FADDI-PA022; CAMHB broth microdilution
Procedure, shortened: as §1

[5] = test system: Enterobacter cloacae FADDI-EC001; format: cell-based; conditions: E. cloacae FADDI-EC001; CAMHB broth microdilution
Procedure, shortened: (§2)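 The read-out is the MIC, obtained by CLSI broth microdilution (M100-S24) in cation-adjusted Mueller-Hinton broth. The compounds were lipopeptide TFA salts, and polymyxin B sulphate served as control.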

[6] = test system: Acinetobacter baumannii FADDI-AB034; format: cell-based; conditions: A. baumannii FADDI-AB034; CAMHB broth microdilution
Procedure, shortened: as §1

[7] = test system: Klebsiella pneumoniae FADDI-KP022; format: cell-based; conditions: K. pneumoniae FADDI-KP022; CAMHB broth microdilution
Procedure, shortened: as §1

[8] = test system: Acinetobacter baumannii ATCC 17978; format: cell-based; conditions: A. baumannii ATCC 17978; CAMHB broth microdilution
Procedure, shortened: as §1

[9] = test system: Enterobacter cloacae FADDI-EC006; format: cell-based; conditions: E. cloacae FADDI-EC006; CAMHB broth microdilution
Procedure, shortened: as §1

[10] = test system: Klebsiella pneumoniae FADDI-KP032; format: cell-based; conditions: K. pneumoniae FADDI-KP032; CAMHB broth microdilution
Procedure, shortened: as §1

[11] = test system: Klebsiella pneumoniae Kp BM1; format: cell-based; conditions: K. pneumoniae Kp BM1; CAMHB broth microdilution
Procedure, shortened: as §2

[12] = test system: Pseudomonas aeruginosa FADDI-PA038; format: cell-based; conditions: P. aeruginosa FADDI-PA038; CAMHB broth microdilution
Procedure, shortened: as §1

[13] = test system: Enterobacter cloacae FADDI-EC003; format: cell-based; conditions: E. cloacae FADDI-EC003; CAMHB broth microdilution
Procedure, shortened: as §1

[14] = test system: Acinetobacter baumannii FADDI-AB030; experiment: microbe, parasite or virus in culture; format: cell-based; conditions: A. baumannii FADDI-AB030; CAMHB broth microdilution
Procedure, shortened: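 Lipopeptide TFA salts tested against the multidrug-resistant clinical isolate by CLSI (M100-S24) broth microdilution in cation-adjusted Mueller-Hinton broth, with polymyxin B sulphate as control; MIC read.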

Molecule | Max Overall Kidney Histological Score [1] | Max Kidney Histological Score [1] | Minimum inhibitory concentration [2] | Minimum inhibitory concentration [3] | Minimum inhibitory concentration [4] | Minimum inhibitory concentration [5] | Minimum inhibitory concentration [6] | Minimum inhibitory concentration [7] | Minimum inhibitory concentration [8] | Minimum inhibitory concentration [9] | Minimum inhibitory concentration [10] | Minimum inhibitory concentration [11] | Minimum inhibitory concentration [12] | Minimum inhibitory concentration [13] | Minimum inhibitory concentration [14] | nephrotoxicity in the mouse model (in words) ([1]; 12 mg/kg every 2 h, 6 doses, subcutaneous)
CC[C@@H]1NC(=O)[C@@H](CC(C)C)NC(=O)[C@H](CCN)NC(=O)[C@@H](NC(=O)[C@H](CN)NC(=O)[C@@H](NC(=O)[C@H](CCN)NC(=O)c2ccc(Cl)nc2)[C@@H](C)O)CCNC(=O)[C@H]([C@@H](C)O)NC(=O)[C@H](CCN)NC(=O)[C@H](CCN)NC1=O [Compound 4] (X48-[Dab]T[Dap][Dab][Dab][dL][Abu][Dab][Dab]T; lactam 4-C) | 0.0 | 0 (SQS 0=no significant change (overall score, <1)) | 0.5 µg/mL (≈ 0.444 µM) | 0.5 µg/mL (≈ 0.444 µM) | 1 µg/mL (≈ 0.888 µM) | 2 µg/mL (≈ 1.78 µM) | 1 µg/mL (≈ 0.888 µM) | 0.5 µg/mL (≈ 0.444 µM) | 1 µg/mL (≈ 0.888 µM) | 4 µg/mL (≈ 3.55 µM) | 1 µg/mL (≈ 0.888 µM) | 2 µg/mL (≈ 1.78 µM) | 1 µg/mL (≈ 0.888 µM) | 0.5 µg/mL (≈ 0.444 µM) | 2 µg/mL (≈ 1.78 µM) | 
CC[C@@H]1NC(=O)[C@@H](CC(C)C)NC(=O)[C@H](CCN)NC(=O)[C@@H](NC(=O)[C@H](CN)NC(=O)[C@@H](NC(=O)[C@H](CCN)NC(=O)c2cc(Cl)nc(Cl)c2)[C@@H](C)O)CCNC(=O)[C@H]([C@@H](C)O)NC(=O)[C@H](CCN)NC(=O)[C@H](CCN)NC1=O [Compound 19] (X51-[Dab]T[Dap][Dab][Dab][dL][Abu][Dab][Dab]T; lactam 4-C) | 0.0 | 0 (SQS 0=no significant change (overall score, <1)) |  |  |  |  |  |  |  |  |  |  |  |  |  | 
CC[C@@H]1NC(=O)[C@@H](CC(C)C)NC(=O)[C@H](CCN)NC(=O)[C@@H](NC(=O)[C@H](CN)NC(=O)[C@@H](NC(=O)[C@H](CCN)NC(=O)c2ccc(C(F)(F)F)cn2)[C@@H](C)O)CCNC(=O)[C@H]([C@@H](C)O)NC(=O)[C@H](CCN)NC(=O)[C@H](CCN)NC1=O [Compound 38] (X14-[Dab]T[Dap][Dab][Dab][dL][Abu][Dab][Dab]T; lactam 4-C) | 0.0 | 0 (SQS 0=no significant change (overall score, <1)) | 0.25 µg/mL (≈ 0.215 µM) | 0.25 µg/mL (≈ 0.215 µM) | 0.25 µg/mL (≈ 0.215 µM) | <0.125 µg/mL | 0.25 µg/mL (≈ 0.215 µM) | 0.25 µg/mL (≈ 0.215 µM) | 1 µg/mL (≈ 0.862 µM) | 0.25 µg/mL (≈ 0.215 µM) | <0.125 µg/mL | <0.125 µg/mL | 1 µg/mL (≈ 0.862 µM) | 0.25 µg/mL (≈ 0.215 µM) | 1 µg/mL (≈ 0.862 µM) | 
CC[C@@H]1NC(=O)[C@@H](CC(C)C)NC(=O)[C@H](CCN)NC(=O)[C@@H](NC(=O)[C@H](CN)NC(=O)[C@@H](NC(=O)[C@H](CCN)NC(=O)c2nc3ccccc3s2)[C@@H](C)O)CCNC(=O)[C@H]([C@@H](C)O)NC(=O)[C@H](CCN)NC(=O)[C@H](CCN)NC1=O [Compound 70] (X52-[Dab]T[Dap][Dab][Dab][dL][Abu][Dab][Dab]T; lactam 4-C) | 0.0 | 0 (SQS 0=no significant change (overall score, <1)) | 0.25 µg/mL (≈ 0.218 µM) | 0.5 µg/mL (≈ 0.435 µM) | 0.5 µg/mL (≈ 0.435 µM) | 0.25 µg/mL (≈ 0.218 µM) | 1 µg/mL (≈ 0.871 µM) | <0.125 µg/mL | 0.5 µg/mL (≈ 0.435 µM) | 0.25 µg/mL (≈ 0.218 µM) | <0.125 µg/mL | <0.125 µg/mL | 1 µg/mL (≈ 0.871 µM) | 0.25 µg/mL (≈ 0.218 µM) | 0.5 µg/mL (≈ 0.435 µM) | 
Colistin [reference compound] | 60.0 | +5 (SQS +5=severe damage (overall score, ≥60)) | 0.5 µg/mL | 1 µg/mL | 1 µg/mL | 0.25 µg/mL | 0.5 µg/mL | 1 µg/mL | 0.5 µg/mL | <0.125 µg/mL | 1 µg/mL | <0.125 µg/mL | 1 µg/mL | <0.125 µg/mL | 0.25 µg/mL | severe nephrotoxicity
